Assay results taken from PubChem BioAssay AID179 (DTP/NCI, 2004).
Calls of active or inactive are those of the source.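 How the source made its calls: active means compounds giving half or more protection of infected cells from virus-caused growth loss, again on retest; inactive means the rest.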 Where a SMILES comes first, the peptide text is derived from it.

Test system: CEM cells HIV-1 protection, formazan growth assay
Assay: NCI AIDS Antiviral Assay
Conditions: for IC50: measured here: growth of uninfected CEM cells
Outline: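 Soluble formazan readout of cell growth; CEM cells ± HIV-1; 5 drug concs. ≥50% protection → retest; ≥50% again = moderately active; reproducible 100% = confirmed active.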

Row | SMILES | EC50 [µM] | IC50 [µM] | outcome
1 | Oc1ccc(C(=C(Br)c2ccccc2)c2ccc(O)cc2)cc1 | > 200 | 3.98 | 
2 | Cc1cc(=O)[nH]c(NNC(C#N)c2ccc(N(C)C)cc2)n1 (stereo not drawn) | > 63.1 | > 63.1 | 
3 | O=C1NC2C(NC(=O)N2Cl)N1Cl (stereo not drawn) | > 200 | > 200 | 
4 | O=C1Nc2ccc(Br)cc2/C1=c1/sc2nc3ccccc3n2c1=O | > 50.1 | 42.7 | 
5 | CCOC(OC1=C(C#N)CCCC1)C(CC)[Se]c1ccccc1 (stereo not drawn) | > 132 | 67.6 | 
6 | COc1ccc2c(c1)CC1c3c(ccc(OC)c3O)CC2N1C (stereo not drawn) | > 43.7 | 20.4 | 
7 | O=C(O)c1c2c(cc3c1CC1(Cc4ccccc4C1)C3)CCC2 | > 200 | 45.7 | 
8 | O=C1NC(=O)C2(c3ccccc3)CCN1C2=O (stereo not drawn) | > 200 | > 200 | 
9 | CC1=C2CC(C)(C)/C=C\C(=O)/C(C)=C\C3=C[C@H](C)C[C@]3(O2)C1=O | > 0.2 | 0.0955 | 
10 | Cc1nc(-n2nc(-c3ccccc3)cc2-c2ccccc2)sc1C(=O)/C=C/c1cccc([N+](=O)[O-])c1 | > 14.5 | 11 | 
11 | Cc1ccc(C(=O)O)c(O)c1 | > 1620 | 1050 | 
12 | CCN(CC)c1ccc2cc(C(=O)Nc3cccc4ccccc34)c(=N)oc2c1 | > 200 | 12.6 | 
13 | O=C(NC(=O)c1ccccc1)NC(=O)c1ccccc1 | > 135 | > 135 | 
14 | COc1ccc2c(=O)c3ccccc3oc2c1 | > 200 | 97.7 | 
15 | Nc1ncnc2c1ncn2C1CCC(COS(N)(=O)=O)C1 (stereo not drawn) | > 200 | > 200 | 
16 | O=C(O)c1c(Cl)c(Cl)c(Cl)c(Cl)c1-c1c2ccc(=O)c(O)c-2oc2c(O)c(O)ccc12 | > 83.2 | 51.3 | 
17 | O=C1OC(=O)c2c1ccc1ccccc21 | > 50.1 | > 50.1 | 
18 | C=C1OC(c2ccccc2NC)=NC12CCCCC2 | > 200 | 115 | 
19 | CCCCCCCC[N+]12CN3CN(CN(C3)C1)C2 | > 759 | 39.8 | 
20 | CN1C(=O)c2ccccc2Cc2c(N3CCCC3)ncnc21 | > 17.8 | > 17.8 | 
21 | CCNC(=O)Cc1nc2c(=O)[nH]cnc2n1C1OC(CO)C(O)C1O (stereo not drawn) | > 200 | > 200 | 
22 | CC[CH2][Pb]([CH2]CC)([CH2]CC)[NH]S(=O)(=O)c1ccc(C)cc1 | > 2 | 0.166 | 

Row | SMILES | EC50 [µM] | IC50 [µM] | outcome
23 | COc1cc2oc(-c3ccc4c(c3)OCO4)c(OC)c(=O)c2c(O)c1OC | > 100 | > 100 | 
24 | CCOP(=S)(OCC)Oc1ccc2c(c1)OC(=O)C1(Cl)C2(C)C2(Cl)C(=O)Oc3cc(OP(=S)(OCC)OCC)ccc3C12C (stereo not drawn) | > 18.6 | > 18.6 | 
25 | N#CC(C#N)=C1SCC(=O)CS1 |  |  | inactive
26 | Nn1c(-c2ccccc2)n[nH]c1=O | > 200 | > 200 | 
27 | O=c1c2sc3nc(NCCN4CCCCC4)ncc3c2ncn1-c1ccccc1 | > 200 | 117 | 
28 | OC(c1nc2ccccc2s1)(C(F)(F)F)C(F)(F)F |  |  | inactive
29 | CC(CCC(N)=O)(CCC(N)=O)[N+](=O)[O-] | > 200 | > 200 | 
30 | Cc1cc(C)n2nc3c4ccsc4ncc3c2n1 | > 45.7 | > 45.7 | 
31 | Cc1ccc(C)c(NC(=O)CC/C(=N\NC(=O)c2c(O)ccc3ccccc23)C(C)C(=O)c2ccc(O)cc2)c1 (stereo not drawn) | > 27.5 | 14.5 | 
32 | CCCc1cc(=O)oc2c3c(c4c(c12)OC(C)(C)[C@H](O)[C@H]4O)O[C@@H](C)[C@H](C)[C@@H]3O | > 200 | 115 | 
33 | CN1NC(c2ccccc2)=C(C#N)C(=O)CC1c1ccccc1 (stereo not drawn) | > 200 | 93.3 | 
34 | COC(=O)/C(=N\Nc1nc(=S)[nH]n1N)C(C#N)c1ccc(Cl)cc1 (stereo not drawn) | > 37.2 | > 37.2 | 
35 | CCOC(=O)c1no[n+]([O-])c1C(=O)OCC | > 200 | 5.75 | 
36 | Cc1cc(NS(=O)(=O)c2ccc(Nc3c4ccccc4nc4c(C(=O)Nc5ccccc5)cccc34)cc2)no1 | > 200 | 10.5 | 
37 | COC(=O)c1ccccc1NC(c1ccccn1)c1ccc2cccnc2c1O (stereo not drawn) | > 25.7 | 1.32 | 
38 | CCOC(=O)CCC1(C(=O)OCC)CCCCC1=O (stereo not drawn) | > 251 | > 251 | 
39 | O=S1(=O)c2ccccc2C(Nc2ccccc2)N1c1ccccc1 (stereo not drawn) | > 200 | 66.1 | 
40 | c1ccc(N2N=C(c3ccco3)CC2c2ccco2)cc1 (stereo not drawn) | > 25.7 | > 25.7 | 
41 | CC(C)N(C(=O)C1(C)CC1)C(C)C | > 1350 | > 1350 | 
42 | COC(=O)CC(c1ccccc1)C1(c2ccccc2)SCCS1 (stereo not drawn) | > 7.94 | > 7.94 | 
43 | CSC1=NN(c2ccccc2)C(=O)C1=C(SC)SC | > 200 | 25.1 | 
44 | Nc1nnnn1-c1ccccc1 | > 200 | > 200 | 

Row | SMILES | EC50 [µM] | IC50 [µM] | outcome
45 | COc1cc2c(c([N+](=O)[O-])c1)NC(=O)C(C)S2 (stereo not drawn) | > 200 | 49 | 
46 | O=C1c2cnccc2Cc2cccc3c2N1c1ccccc1S3 | > 22.9 | > 22.9 | 
47 | N#CC(C(=O)CCC(=O)Nc1ccc(Cl)cc1)c1ccccc1Cl (stereo not drawn) | > 186 | > 186 | 
48 | COC1CC2C3/C(=N/Nc4ccc([N+](=O)[O-])cc4[N+](=O)[O-])CCC2(C)C3C1 (stereo not drawn) |  |  | inactive
49 | COc1ccc(C(=O)NNC(=O)c2nsc3ccccc23)cc1 | > 41.7 | > 41.7 | 
50 | O=C1NCc2c1[nH]c(=O)[nH]c2=O | > 155 | > 155 | 
51 | CCOC(=O)/C(C#N)=C1/c2ccccc2C(=O)C1(Cl)C(N)=O (stereo not drawn) | > 200 | 28.8 | 
52 | Cc1ccc(S(=O)OC2C3CC4CC(C3)CC2C4)cc1 (stereo not drawn) |  |  | inactive
53 | O=c1nc2c(c(-c3cccc(Cl)c3)[nH]1)COC/C2=C\c1cccc(Cl)c1 |  |  | inactive
54 | COC1/C=C/OC2(C)Oc3c(C)c(O)c4c(O)c(c(C=NOC(c5ccccc5)c5ccccc5)c(O)c4c3C2=O)NC(=O)/C(C)=C/C=C/C(C)C(O)C(C)C(O)C(C)C(OC(C)=O)C1C (stereo not drawn) | > 200 | 4.79 | 
55 | CCSC1(SCC)CCN(C=NC(C)(C)C)C1 | > 912 | > 912 | 
56 | O=C(Nc1ccccc1)n1[nH]c(=O)n(-c2ccccc2)c1=O | > 200 | > 200 | 
57 | Cn1c(=O)c2nc3n(c2n(C)c1=O)C(=O)C(C(=O)O)N=N3 (stereo not drawn) | > 200 | > 200 | 
58 | CCN(CC)c1ccc(/C=C2/C=Cc3ccccc32)cc1 | > 7.24 | > 7.24 | 
59 | NNC1=N/C(=C\c2ccco2)C(Cl)=N1 | > 200 | 38 | 
60 | C[CH2][Sn]([CH2]C)([O]C(=O)c1ccc(OC)c(OC)c1OC)[O]C(=O)c1ccc(OC)c(OC)c1OC | > 83.2 | 7.59 | 
61 | CCOC(=O)C1C(c2ccc(OC)cc2)c2c([nH]n(-c3ccccc3)c2=O)CC1(C)O (stereo not drawn) |  |  | inactive
62 | O=C(O)/C=C/C(=O)Nc1ccccc1-n1cccc1 | > 200 | > 200 | 
63 | CC1CN=C(N(Cc2ccccc2)C(=O)Nc2ccc(Cl)c(Cl)c2)S1 (stereo not drawn) | > 200 | 67.6 | 
64 | COc1ccc(C2c3cc4c(cc3OC(N3CCCCC3)C2C)OCO4)cc1 (stereo not drawn) | > 200 | > 200 | 
65 | O=C1OC(=O)c2cnccc21 |  |  | inactive
66 | CC(C)CC(N)C(=O)NC(CC(=O)O)C(=O)NC(CCCCN)C(=O)NC(C)C(=O)NC(CO)C(=O)NC(Cc1ccc(O)cc1)C(=O)NC(CO)C(=O)NC(C(=O)NC(CC(N)=O)C(=O)NC(Cc1cnc[nH]1)C(=O)NC(CC(C)C)C(N)=O)C(C)O (stereo not drawn) (H-LDKASYSTNHL-NH2; configuration not given here) | > 50.1 | > 50.1 | 

Row | SMILES | EC50 [µM] | IC50 [µM] | outcome
67 | COc1ccc2nc(C)cc(NCCCCCCCCCNc3cc(C)nc4ccc(OC)cc34)c2c1 | > 33.1 | 0.891 | 
68 | C(=N\Nc1ccccc1)/c1nc2ccccc2nc1/C=N/Nc1ccccc1 | > 5.5 | > 5.5 | 
69 | CC(=O)OCC12CC(CC1OC(C)=O)c1ccccc12 (stereo not drawn) | > 251 | > 251 | 
70 | N#CCCN(CCCN(C(=O)Nc1ccc(NC(=O)N(CCCN(CCC#N)C(N)=O)c2ccccc2)cc1)c1ccccc1)C(N)=O | > 200 | > 200 | 
71 | Cc1ccc(/C=N/Nc2nc3ccccc3s2)s1 | > 200 | 67.6 | 
72 | NCCN(CCN)/[N+]([O-])=N/O | > 200 | > 200 | 
73 | Cc1c(C#N)c(=O)[nH]c(=O)n1CCN1CCN(C(=O)NCCCCCCNC(=O)N2CCN(CCn3c(C)c(C#N)c(=O)[nH]c3=O)CC2)CC1 |  |  | inactive
74 | O=C1c2c(ccc3c2CCC3)CC1Cc1ccc2c(c1)CCC2 (stereo not drawn) | > 200 | 35.5 | 
75 | COc1cc2c(SCCN(C)C)nc3ccccc3c2c2ccccc12 |  |  | inactive
76 | COC(=O)C(NC(=O)CSc1nnc(COc2ccc(Cl)cc2)n1-c1ccccc1)C(C)C (stereo not drawn) | > 200 | 12 | 
77 | CC(=O)NC(CCC(=O)c1ccc(C)cc1)(C(=O)O)C(=O)O | > 200 | > 200 | 
78 | C[C@@H](O)[C@H]1/C=C/C=C\C(=O)O[C@@H]2C[C@H]3O[C@@H]4[C@@H]5OC5(C)CCC4(COC(=O)[C@H]4O[C@]4(C)[C@@H](O)CO1)[C@]2(C)[C@]31CO1 (stereo partly drawn) | > 0.2 | 0.0631 | 
79 | COC(COC(N)=O)C1=C(N2CC2)C(=O)C(C)=C(N2CC2)C1=O (stereo not drawn) | > 2 | 0.0166 | 
80 | COC(=O)C(CC=O)C(=O)C(=O)Nc1cccc(C(F)(F)F)c1 (stereo not drawn) | > 282 | > 282 | 
81 | COC(=O)CCC1=NCC(C)(C)O1 | > 200 | > 200 | 
82 | O=C1OC(=O)C2C1C1(c3ccccc3)OC2(c2ccccc2)c2c(Br)c(Br)c(Br)c(Br)c21 (stereo not drawn) |  |  | inactive
83 | COC(=O)Cc1c(-c2c(CC(=O)OC)c3ccccc3n2C2OC(COC3OC(COC(C)=O)C(OC(C)=O)C(OC(C)=O)C3OC(C)=O)C(O)C(O)C2O)[nH]c2ccccc12 (stereo not drawn) | 105 | 151 | 
84 | O=C(CC(=O)c1ccc(Cl)cc1)Cc1ccc2ccccc2n1 | > 11.2 | > 11.2 | 
85 | O=C1CCN(CCC(F)(F)C(F)(F)C(F)(F)C(F)(F)F)C(=S)N1 | > 26.3 | > 26.3 | 
86 | CCOC(=O)c1cn(CC)c2cc3c(cc2c1=O)SCS3 |  |  | inactive
87 | CC(=O)OC(C#N)CC(C)(C)/[N+]([O-])=[N+](\[O-])C(C)(C)CC(C#N)OC(C)=O (stereo not drawn) | > 20 | 3.63 | 
